Source: patent US20230113037A1 (Bayer Aktiengesellschaft, priority 2019, published 2023)
Like-named read-outs stand apart in the source and are kept apart here.

What was measured:
AHR [1] = target: T1, AHR (Homo sapiens, UniProt P35869); assay: In vitro assay 1: antagonism in human cell line (AHR transactivation, firefly luciferase reporter, kynurenic acid prestimulated); assay type: cell-based; conditions: AHR Antagonism Human IC50 [M]
T1 construct: U87 MG glioblastoma cells (ATCC #HTB-14) endogenously expressing AHR; endogenous in cells; host or cells: U87 MG glioblastoma cells (ATCC #HTB-14)
T1 sequence (P35869 11-848): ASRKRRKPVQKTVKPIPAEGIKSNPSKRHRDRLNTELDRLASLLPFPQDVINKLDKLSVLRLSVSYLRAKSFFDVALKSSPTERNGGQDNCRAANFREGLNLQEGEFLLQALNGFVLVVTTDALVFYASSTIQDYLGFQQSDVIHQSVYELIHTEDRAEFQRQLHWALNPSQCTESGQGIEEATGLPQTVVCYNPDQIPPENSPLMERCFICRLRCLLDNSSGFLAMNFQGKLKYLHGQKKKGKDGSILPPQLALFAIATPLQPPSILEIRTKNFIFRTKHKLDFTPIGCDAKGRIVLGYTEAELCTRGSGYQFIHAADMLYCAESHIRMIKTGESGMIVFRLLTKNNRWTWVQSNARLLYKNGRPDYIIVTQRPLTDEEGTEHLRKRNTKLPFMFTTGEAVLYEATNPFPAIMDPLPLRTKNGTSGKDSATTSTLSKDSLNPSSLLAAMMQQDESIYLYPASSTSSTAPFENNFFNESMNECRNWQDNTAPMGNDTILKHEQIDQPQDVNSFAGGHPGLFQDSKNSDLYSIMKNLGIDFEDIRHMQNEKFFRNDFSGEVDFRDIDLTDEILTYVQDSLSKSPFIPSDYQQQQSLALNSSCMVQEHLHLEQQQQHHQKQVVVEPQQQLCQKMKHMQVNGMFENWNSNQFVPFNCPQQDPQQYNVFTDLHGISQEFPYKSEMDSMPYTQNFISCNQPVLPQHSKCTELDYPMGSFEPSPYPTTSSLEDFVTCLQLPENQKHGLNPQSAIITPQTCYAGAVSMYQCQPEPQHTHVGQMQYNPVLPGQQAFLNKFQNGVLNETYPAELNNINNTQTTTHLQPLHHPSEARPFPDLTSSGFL
Procedure, shortened: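 Antagonism is measured against kynurenic acid prestimulation in U87 MG glioblastoma cells carrying stable DRE-luciferase and Renilla reporters. Positive inhibition control: 150 μM kynurenic acid with 5 μM staurosporine. Values are normalized to controls; repeats are averaged or given as medians.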

AHR [2] = target: T2, AHR (Mus musculus, UniProt P30561); assay: In vitro assay 3: antagonism in mouse cell line (AHR transactivation, firefly luciferase reporter, kynurenic acid prestimulated); assay type: cell-based
T2 sequence (P30561 1-848 P471L/N533S/M589L): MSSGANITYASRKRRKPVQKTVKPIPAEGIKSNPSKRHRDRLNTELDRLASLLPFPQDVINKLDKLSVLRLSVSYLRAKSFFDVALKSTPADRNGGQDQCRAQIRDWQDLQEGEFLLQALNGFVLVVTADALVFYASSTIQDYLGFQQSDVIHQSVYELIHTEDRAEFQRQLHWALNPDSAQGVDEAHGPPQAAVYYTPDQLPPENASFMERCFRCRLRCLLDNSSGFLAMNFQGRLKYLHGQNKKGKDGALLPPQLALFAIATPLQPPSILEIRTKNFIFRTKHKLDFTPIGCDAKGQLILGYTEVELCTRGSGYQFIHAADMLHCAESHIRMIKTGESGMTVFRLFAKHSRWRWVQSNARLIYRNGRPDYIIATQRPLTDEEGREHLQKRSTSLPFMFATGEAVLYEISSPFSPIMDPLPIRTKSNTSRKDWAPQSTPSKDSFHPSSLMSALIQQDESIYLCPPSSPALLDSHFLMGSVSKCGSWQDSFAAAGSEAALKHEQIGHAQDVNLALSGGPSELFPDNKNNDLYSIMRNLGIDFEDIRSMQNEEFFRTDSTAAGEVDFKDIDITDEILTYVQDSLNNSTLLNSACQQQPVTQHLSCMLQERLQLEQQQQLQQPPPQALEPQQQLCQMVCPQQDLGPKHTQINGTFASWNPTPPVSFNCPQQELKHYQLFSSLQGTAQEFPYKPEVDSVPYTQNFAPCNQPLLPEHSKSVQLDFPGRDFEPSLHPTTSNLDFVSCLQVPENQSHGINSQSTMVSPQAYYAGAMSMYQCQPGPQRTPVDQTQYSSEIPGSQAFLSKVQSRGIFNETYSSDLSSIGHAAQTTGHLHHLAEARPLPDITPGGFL
Procedure, shortened: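 Antagonism read as reduced firefly luciferase signal (SteadyGlo) from a stably transfected AHR/DRE reporter in a mouse line prestimulated with kynurenic acid. Data normalized to controls, the full-inhibition control being cells without kynurenic acid; multiple determinations given as average or median values.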

[3] = mouse Hepa 1c1c7 cells, 200 μM kynurenic acid, 20 hours, read-out: AHR Antagonism Mouse IC50
[4] = Hepa 1c1c7 cells, 200 μM kynurenic acid, 20 hours, firefly luciferase reporter, read-out: AHR Antagonism Mouse IC50

Structure (SMILES) | IC50 (AHR [1]; firefly luciferase reporter) [M] | IC50 (AHR [2]; read-out: AHR Antagonism Mouse IC50, Hepa 1c1c7 cells, 200 μM kynurenic acid, 20 hours, firefly luciferase reporter) [nM] | IC50 (AHR [1]) [M] | IC50 (AHR [2]; [3]) [nM] | IC50 (AHR [2]; [4]) [nM]
COc1ccc(-c2nc3c4cccc(Br)c4nc(N[C@H](C)C(=O)NCCN(C)C(=O)OC(C)(C)C)n3n2)cc1 [Example 887, tert-butyl [2-({N-[7-bromo-2-(4-methoxyphenyl)[1,2,4]triazolo[1,5-c]quinazolin-5-yl]-D-alanyl}amino)ethyl]methylcarbamate] | 1.37e-09 | 10.1 | – | – | –
O=C1NCCCC[C@H]1Nc1nc2ccccc2c2nc(-c3cc(F)ccc3F)nn12 [Example 197, (3R)-3-{[2-(2,5-difluorophenyl)[1,2,4]triazolo[1,5-c]quinazolin-5-yl]amino}azepan-2-one] | – | – | 4.23e-09 | 1.82 | –
COc1cccc(-c2nc3c4ccccc4nc(NC4CCNC4=O)n3n2)c1 (single isomer, unassigned) [Example 120, 3-{[2-(3-methoxyphenyl)[1,2,4]triazolo[1,5-c]quinazolin-5-yl]amino}pyrrolidin-2-one] | – | – | 6.02e-08 | 56.1 | –
COc1ccc(-c2nc3c4ccccc4nc(N[C@H](C)C(=O)N4CCOCC4)n3n2)cc1 [Example 778, (2R)-2-{[2-(4-methoxyphenyl)[1,2,4]triazolo[1,5-c]quinazolin-5-yl]amino}-1-(morpholin-4-yl)propan-1-one] | – | – | 2.09e-09 | 4.32 | –
C[C@@H](Nc1nc2c(Br)cccc2c2nc(-c3cnn(C)c3)nn12)C(=O)N1CCN(C(=O)OC(C)(C)C)CC1 [Example 886, tert-butyl 4-{N-[7-bromo-2-(1-methyl-1H-pyrazol-4-yl)[1,2,4]triazolo[1,5-c]quinazolin-5-yl]-D-alanyl}piperazine-1-carboxylate] | 6.83e-08 | – | – | – | 99.3
CCOC(=O)[C@@H](C)Nc1nc2c(Br)cccc2c2nc(-c3cnn(C)c3)nn12 [Example 866, ethyl N-[7-bromo-2-(1-methyl-1H-pyrazol-4-yl)[1,2,4]triazolo[1,5-c]quinazolin-5-yl]-D-alaninate] | 5.75e-08 | – | – | – | 144
O=C1NCCCC[C@H]1Nc1nc2c(C(F)(F)F)cccc2c2nc(-c3cnn(CC4CCC4)c3)nn12 [Example 744, (3R)-3-({2-[1-(cyclobutylmethyl)-1H-pyrazol-4-yl]-7-(trifluoromethyl)[1,2,4]triazolo[1,5-c]quinazolin-5-yl}amino)azepan-2-one] | – | – | 1.69e-09 | 11.6 | –
Cc1nn(C)cc1-c1nc2c3cccc(Cl)c3nc(N[C@@H]3CCCCNC3=O)n2n1 [Example 821, (3R)-3-{[7-chloro-2-(1,3-dimethyl-1H-pyrazol-4-yl)[1,2,4]triazolo[1,5-c]quinazolin-5-yl]amino}azepan-2-one] | 2.98e-10 | – | – | – | 0.739
CC(C)n1cc(-c2nc3c4cccc(C(F)(F)F)c4nc(N[C@H]4CNCCNC4=O)n3n2)cn1 [Example 960, (6S)-6-({2-[1-(propan-2-yl)-1H-pyrazol-4-yl]-7-(trifluoromethyl)[1,2,4]triazolo[1,5-c]quinazolin-5-yl}amino)-1,4-diazepan-5-one] | 4.02e-08 | – | – | – | 93
COc1cccc(-c2nc3c4ccccc4nc(N[C@@H]4CCCCNC4=O)n3n2)c1 [Example 75, (3R)-3-{[2-(3-methoxyphenyl)[1,2,4]triazolo[1,5-c]quinazolin-5-yl]amino}azepan-2-one] | – | – | 2.57e-09 | 0.359 | –
Cn1cc(-c2nc3c4ccccc4nc(N[C@@H]4CCCCNC4=O)n3n2)nn1 [Example 435] | – | – | 1.3e-07 | 164 | –
O=C1NCCCC[C@H]1Nc1nc2ccccc2c2nc(-c3ccc(O)cc3)nn12 [Example 614, (3R)-3-{[2-(4-hydroxyphenyl)[1,2,4]triazolo[1,5-c]quinazolin-5-yl]amino}azepan-2-one] | – | – | 2.09e-08 | 23.8 | –
O=C1NCCC[C@H]1Nc1nc2ccccc2c2nc(-c3ccccc3OC(F)(F)F)nn12 [Example 458, (3R)-3-({2-[2-(trifluoromethoxy)phenyl][1,2,4]triazolo[1,5-c]quinazolin-5-yl}amino)piperidin-2-one] | – | – | 6.37e-08 | 28 | –
N#Cc1cccc2c1nc(N[C@@H]1CCCCNC1=O)n1nc(-c3ccc(F)cc3)nc21 [Example 402, 2-(4-Fluorophenyl)-5-{[(3R)-2-oxoazepan-3-yl]amino}[1,2,4]triazolo[1,5-c]quinazoline-7-carbonitrile] | – | – | 8.32e-09 | 26.1 | –
CN1CC[C@@H](Nc2nc3ccccc3c3nc(-c4cccc(OC(F)(F)F)c4)nn23)C1=O [Example 312, (3R)-1-methyl-3-({2-[3-(trifluoromethoxy)phenyl][1,2,4]triazolo[1,5-c]quinazolin-5-yl}amino)pyrrolidin-2-one] | – | – | 7.19e-08 | 22 | –
O=C1NCCCCCC1Nc1nc2ccccc2c2nc(-c3ccccc3OC(F)F)nn12 (centres unmarked) [Example 474, 3-({2-[2-(difluoromethoxy)phenyl][1,2,4]triazolo[1,5-c]quinazolin-5-yl}amino)azocan-2-one] | – | – | 3.11e-09 | 1.37 | –
CC[C@@H](Nc1nc2c(Br)cccc2c2nc(-c3ccc(Cl)cc3OC(F)(F)F)nn12)C(N)=O [Example 573, (2R)-2-({7-bromo-2-[4-chloro-2-(trifluoromethoxy)phenyl][1,2,4]triazolo[1,5-c]quinazolin-5-yl}amino)butanamide] | – | – | 3.36e-09 | 1.39 | –
CSc1ccccc1-c1nc2c3ccccc3nc(N[C@@H]3CCCCNC3=O)n2n1 [Example 478, (3R)-3-({2-[2-(methylsulfanyl)phenyl][1,2,4]triazolo[1,5-c]quinazolin-5-yl}amino)azepan-2-one] | – | – | 4.98e-08 | 2.99 | –
O=C1NCCCC[C@H]1Nc1nc2ccccc2c2nc(-c3ccc(Cl)cc3)nn12 [Example 6] | – | – | 5.93e-10 | > 10000 | –
COCCNC(=O)[C@H](Nc1nc2c(Br)cccc2c2nc(-c3cnn(C)c3)nn12)C(C)C [Example 929, N^2-[7-bromo-2-(1-methyl-1H-pyrazol-4-yl)[1,2,4]triazolo[1,5-c]quinazolin-5-yl]-N-(2-methoxyethyl)-D-valinamide] | 3.93e-08 | – | – | – | 10.9
CNCCNC(=O)[C@@H](C)Nc1nc2c(Br)cccc2c2nc(-c3ccc(OC)cc3)nn12 [Example 987, N^2-[7-bromo-2-(4-methoxyphenyl)[1,2,4]triazolo[1,5-c]quinazolin-5-yl]-N-[2-(methylamino)ethyl]-D-alaninamide-hydrogen chloride (1/1)] | 8.61e-09 | – | – | – | 13.2
Cc1cc2c(cc1C(F)F)nc(N[C@@H]1CCCCNC1=O)n1nc(-c3cnn(C)c3)nc21 [Example 405, (3R)-3-{[8-(difluoromethyl)-9-methyl-2-(1-methyl-1H-pyrazol-4-yl)[1,2,4]triazolo[1,5-c]quinazolin-5-yl]amino}azepan-2-one] | – | – | 3.41e-07 | 792 | –
